{"source": "patent US7259011B2", "about": "“Pluripotent adult stem cells” (priority 2004, dated 2007)", "system": "PPASCs", "note": "Where two headings read alike, the source gives them in different places.", "description": "PPASCs were thawed or trypsinized from expansion cultures and plated at 20,000 cells per 16 mm well in 24-well gelatin-coated culture plates (Corning Glass Works, Corning, N.Y.). All wells contained EMEM and 10% pre-selected horse serum. The control group remained in this medium, while the experimental wells contained media supplemented with dexamethasone (Sigma). Dexamethasone used were logarithmic concentrations from 10^−10 to 10^−6 M. Cultures were fixed and assayed for phenotypes at one-week intervals up to five weeks.\nThe immunohistochemical protocol typically used was adopted from Romero-Ramos et al. (2002)^3:\n8) 0.25 ml of the primary antibody in PBS was added for 60 minutes at 37° C. • Antibodies used: Table 2\n10) A second blocking step of 1% Goat Serum in PBS with 0.5% Tween was performed for 20 minutes preceding the addition of the secondary antibody. • 11) The cells received 0.25 ml of horse-radish peroxidase conjugated IgG secondary antibody that was diluted with PBS to a concentration of 1:1500 or secondary antibody conjugated with either FITC or TRITC fluorochrome. • 12) After 30 minutes of incubation at 37° C. with the secondary antibody, the wells were rinsed with PBS five times. If the secondary antibody was conjugated to fluorochrome, photographs were taken after this step. • 13) 0.25 ml of True Blue or DAB solution was added and light protected for up to 20 minutes. • 14) Five rinses of dH2O followed. • 15) Photographs were taken on an Olympus Inverted Scope Model IMT light microscope.", "data": [{"molecule": "C[C@@H]1C[C@H]2[C@@H]3CCC4=CC(=O)C=C[C@]4(C)[C@@]3(F)[C@@H](O)C[C@]2(C)[C@@]1(O)C(=O)CO", "note": "[dex, dexamethasone]", "values": [{"measurement": "concentration at which cells containing vesicles (Sudan Black B stained, adipocytes) were observed", "value": "10^−9 to 10^−6 M"}, {"measurement": "concentration at which induction of endothelial cells reproducibly occurred", "value": "≥ 10^−8 M"}, {"measurement": "concentration giving the highest quantity of hepatocytes", "value": "10^−8 M"}, {"measurement": "AFP stained cells (liver; α-fetoprotein)", "setting": "10^−6 M dex", "value": "+ (+ = 1–5 cells seen per culture well.)"}, {"measurement": "CIICI stained cells (cartilage; type II collagen)", "setting": "10^−6 M dex", "value": "− (− = no stained cells seen per culture well.)"}, {"measurement": "CNPase stained cells (glial cells)", "setting": "10^−6 M dex", "value": "− (− = no stained cells seen per culture well.)"}, {"measurement": "CT3 stained cells (cardiac muscle; cardiac troponin T)", "setting": "10^−6 M dex", "value": "+ (+ = 1–5 cells seen per culture well.)"}, {"measurement": "Desmin stained cells (myogenic precursor cells)", "setting": "10^−6 M dex", "value": "+ (+ = 1–5 cells seen per culture well.)"}, {"measurement": "GFAP stained cells (astrocytes)", "setting": "10^−6 M dex", "value": "− (− = no stained cells seen per culture well.)"}, {"measurement": "IA4 stained cells (smooth muscle; α-smooth muscle actin)", "setting": "10^−6 M dex", "value": "+ (+ = 1–5 cells seen per culture well.)"}, {"measurement": "IL-1β stained cells", "setting": "10^−6 M dex", "value": "+ (+ = 1–5 cells seen per culture well.)"}, {"measurement": "LDL uptake (fluorescent labeled acetylated low density lipoprotein, 20 min)", "setting": "10^−6 M dex", "value": "++ (++ = 5–10 cells observed per culture well.)"}, {"measurement": "MF-20 stained cells (skeletal muscle; heavy chain of myosin)", "setting": "10^−6 M dex", "value": "− (− = no stained cells seen per culture well.)"}, {"measurement": "MPIII stained cells (bone; osteopontin)", "setting": "10^−6 M dex", "value": "− (− = no stained cells seen per culture well.)"}, {"measurement": "P2B1 stained cells (endothelial cells)", "setting": "10^−6 M dex", "value": "++ (++ = 5–10 cells observed per culture well.)"}, {"measurement": "P4A4 stained cells (endothelial cells)", "setting": "10^−6 M dex", "value": "+ (+ = 1–5 cells seen per culture well.)"}, {"measurement": "Sudan Black B stained cells (fat)", "setting": "10^−6 M dex", "value": "++ (++ = 5–10 cells observed per culture well.)"}, {"measurement": "Talin stained cells (fibroblasts)", "setting": "10^−6 M dex", "value": "− (− = no stained cells seen per culture well.)"}, {"measurement": "Trop I stained cells (cardiac muscle; cardiac troponin I)", "setting": "10^−6 M dex", "value": "+ (+ = 1–5 cells seen per culture well.)"}, {"measurement": "WVIDI stained cells (bone; bone sialoproteins I and II)", "setting": "10^−6 M dex", "value": "− (− = no stained cells seen per culture well.)"}, {"measurement": "AFP stained cells (liver; α-fetoprotein)", "setting": "10^−7 M dex", "value": "++ (++ = 5–10 cells observed per culture well.)"}, {"measurement": "CIICI stained cells (cartilage; type II collagen)", "setting": "10^−7 M dex", "value": "+ (+ = 1–5 cells seen per culture well.)"}, {"measurement": "CNPase stained cells (glial cells)", "setting": "10^−7 M dex", "value": "− (− = no stained cells seen per culture well.)"}, {"measurement": "CT3 stained cells (cardiac muscle; cardiac troponin T)", "setting": "10^−7 M dex", "value": "++ (++ = 5–10 cells observed per culture well.)"}, {"measurement": "Desmin stained cells (myogenic precursor cells)", "setting": "10^−7 M dex", "value": "+ (+ = 1–5 cells seen per culture well.)"}, {"measurement": "GFAP stained cells (astrocytes)", "setting": "10^−7 M dex", "value": "− (− = no stained cells seen per culture well.)"}, {"measurement": "IA4 stained cells (smooth muscle; α-smooth muscle actin)", "setting": "10^−7 M dex", "value": "++ (++ = 5–10 cells observed per culture well.)"}, {"measurement": "IL-1β stained cells", "setting": "10^−7 M dex", "value": "+ (+ = 1–5 cells seen per culture well.)"}, {"measurement": "LDL uptake (fluorescent labeled acetylated low density lipoprotein, 20 min)", "setting": "10^−7 M dex", "value": "++ (++ = 5–10 cells observed per culture well.)"}, {"measurement": "MF-20 stained cells (skeletal muscle; heavy chain of myosin)", "setting": "10^−7 M dex", "value": "− (− = no stained cells seen per culture well.)"}, {"measurement": "MPIII stained cells (bone; osteopontin)", "setting": "10^−7 M dex", "value": "+ (+ = 1–5 cells seen per culture well.)"}, {"measurement": "P2B1 stained cells (endothelial cells)", "setting": "10^−7 M dex", "value": "+ (+ = 1–5 cells seen per culture well.)"}, {"measurement": "P4A4 stained cells (endothelial cells)", "setting": "10^−7 M dex", "value": "+ (+ = 1–5 cells seen per culture well.)"}, {"measurement": "Sudan Black B stained cells (fat)", "setting": "10^−7 M dex", "value": "++ (++ = 5–10 cells observed per culture well.)"}, {"measurement": "Talin stained cells (fibroblasts)", "setting": "10^−7 M dex", "value": "++ (++ = 5–10 cells observed per culture well.)"}, {"measurement": "Trop I stained cells (cardiac muscle; cardiac troponin I)", "setting": "10^−7 M dex", "value": "+ (+ = 1–5 cells seen per culture well.)"}, {"measurement": "WVIDI stained cells (bone; bone sialoproteins I and II)", "setting": "10^−7 M dex", "value": "+ (+ = 1–5 cells seen per culture well.)"}, {"measurement": "AFP stained cells (liver; α-fetoprotein)", "setting": "10^−8 M dex", "value": "+ (+ = 1–5 cells seen per culture well.)"}, {"measurement": "CIICI stained cells (cartilage; type II collagen)", "setting": "10^−8 M dex", "value": "++ (++ = 5–10 cells observed per culture well.)"}, {"measurement": "CNPase stained cells (glial cells)", "setting": "10^−8 M dex", "value": "+ (+ = 1–5 cells seen per culture well.)"}, {"measurement": "CT3 stained cells (cardiac muscle; cardiac troponin T)", "setting": "10^−8 M dex", "value": "+ (+ = 1–5 cells seen per culture well.)"}, {"measurement": "Desmin stained cells (myogenic precursor cells)", "setting": "10^−8 M dex", "value": "+ (+ = 1–5 cells seen per culture well.)"}, {"measurement": "GFAP stained cells (astrocytes)", "setting": "10^−8 M dex", "value": "− (− = no stained cells seen per culture well.)"}, {"measurement": "IA4 stained cells (smooth muscle; α-smooth muscle actin)", "setting": "10^−8 M dex", "value": "+ (+ = 1–5 cells seen per culture well.)"}, {"measurement": "IL-1β stained cells", "setting": "10^−8 M dex", "value": "+ (+ = 1–5 cells seen per culture well.)"}, {"measurement": "LDL uptake (fluorescent labeled acetylated low density lipoprotein, 20 min)", "setting": "10^−8 M dex", "value": "+ (+ = 1–5 cells seen per culture well.)"}, {"measurement": "MF-20 stained cells (skeletal muscle; heavy chain of myosin)", "setting": "10^−8 M dex", "value": "+ (+ = 1–5 cells seen per culture well.)"}, {"measurement": "MPIII stained cells (bone; osteopontin)", "setting": "10^−8 M dex", "value": "+ (+ = 1–5 cells seen per culture well.)"}, {"measurement": "P2B1 stained cells (endothelial cells)", "setting": "10^−8 M dex", "value": "− (− = no stained cells seen per culture well.)"}, {"measurement": "P4A4 stained cells (endothelial cells)", "setting": "10^−8 M dex", "value": "+ (+ = 1–5 cells seen per culture well.)"}, {"measurement": "Sudan Black B stained cells (fat)", "setting": "10^−8 M dex", "value": "+ (+ = 1–5 cells seen per culture well.)"}, {"measurement": "Talin stained cells (fibroblasts)", "setting": "10^−8 M dex", "value": "++ (++ = 5–10 cells observed per culture well.)"}, {"measurement": "Trop I stained cells (cardiac muscle; cardiac troponin I)", "setting": "10^−8 M dex", "value": "+ (+ = 1–5 cells seen per culture well.)"}, {"measurement": "WVIDI stained cells (bone; bone sialoproteins I and II)", "setting": "10^−8 M dex", "value": "+ (+ = 1–5 cells seen per culture well.)"}, {"measurement": "AFP stained cells (liver; α-fetoprotein)", "setting": "10^−9 M dex", "value": "+ (+ = 1–5 cells seen per culture well.)"}, {"measurement": "CIICI stained cells (cartilage; type II collagen)", "setting": "10^−9 M dex", "value": "+ (+ = 1–5 cells seen per culture well.)"}, {"measurement": "CNPase stained cells (glial cells)", "setting": "10^−9 M dex", "value": "++ (++ = 5–10 cells observed per culture well.)"}, {"measurement": "CT3 stained cells (cardiac muscle; cardiac troponin T)", "setting": "10^−9 M dex", "value": "− (− = no stained cells seen per culture well.)"}, {"measurement": "Desmin stained cells (myogenic precursor cells)", "setting": "10^−9 M dex", "value": "++ (++ = 5–10 cells observed per culture well.)"}, {"measurement": "GFAP stained cells (astrocytes)", "setting": "10^−9 M dex", "value": "++ (++ = 5–10 cells observed per culture well.)"}, {"measurement": "IA4 stained cells (smooth muscle; α-smooth muscle actin)", "setting": "10^−9 M dex", "value": "− (− = no stained cells seen per culture well.)"}, {"measurement": "IL-1β stained cells", "setting": "10^−9 M dex", "value": "− (− = no stained cells seen per culture well.)"}, {"measurement": "LDL uptake (fluorescent labeled acetylated low density lipoprotein, 20 min)", "setting": "10^−9 M dex", "value": "− (− = no stained cells seen per culture well.)"}, {"measurement": "MF-20 stained cells (skeletal muscle; heavy chain of myosin)", "setting": "10^−9 M dex", "value": "+ (+ = 1–5 cells seen per culture well.)"}, {"measurement": "MPIII stained cells (bone; osteopontin)", "setting": "10^−9 M dex", "value": "+ (+ = 1–5 cells seen per culture well.)"}, {"measurement": "P2B1 stained cells (endothelial cells)", "setting": "10^−9 M dex", "value": "− (− = no stained cells seen per culture well.)"}, {"measurement": "P4A4 stained cells (endothelial cells)", "setting": "10^−9 M dex", "value": "− (− = no stained cells seen per culture well.)"}, {"measurement": "Sudan Black B stained cells (fat)", "setting": "10^−9 M dex", "value": "− (− = no stained cells seen per culture well.)"}, {"measurement": "Talin stained cells (fibroblasts)", "setting": "10^−9 M dex", "value": "+ (+ = 1–5 cells seen per culture well.)"}, {"measurement": "Trop I stained cells (cardiac muscle; cardiac troponin I)", "setting": "10^−9 M dex", "value": "− (− = no stained cells seen per culture well.)"}, {"measurement": "WVIDI stained cells (bone; bone sialoproteins I and II)", "setting": "10^−9 M dex", "value": "+ (+ = 1–5 cells seen per culture well.)"}, {"measurement": "AFP stained cells (liver; α-fetoprotein)", "setting": "10^−10 M dex", "value": "− (− = no stained cells seen per culture well.)"}, {"measurement": "CIICI stained cells (cartilage; type II collagen)", "setting": "10^−10 M dex", "value": "− (− = no stained cells seen per culture well.)"}, {"measurement": "CNPase stained cells (glial cells)", "setting": "10^−10 M dex", "value": "++ (++ = 5–10 cells observed per culture well.)"}, {"measurement": "CT3 stained cells (cardiac muscle; cardiac troponin T)", "setting": "10^−10 M dex", "value": "− (− = no stained cells seen per culture well.)"}, {"measurement": "Desmin stained cells (myogenic precursor cells)", "setting": "10^−10 M dex", "value": "+ (+ = 1–5 cells seen per culture well.)"}, {"measurement": "GFAP stained cells (astrocytes)", "setting": "10^−10 M dex", "value": "+ (+ = 1–5 cells seen per culture well.)"}, {"measurement": "IA4 stained cells (smooth muscle; α-smooth muscle actin)", "setting": "10^−10 M dex", "value": "− (− = no stained cells seen per culture well.)"}, {"measurement": "IL-1β stained cells", "setting": "10^−10 M dex", "value": "− (− = no stained cells seen per culture well.)"}, {"measurement": "LDL uptake (fluorescent labeled acetylated low density lipoprotein, 20 min)", "setting": "10^−10 M dex", "value": "− (− = no stained cells seen per culture well.)"}, {"measurement": "MF-20 stained cells (skeletal muscle; heavy chain of myosin)", "setting": "10^−10 M dex", "value": "+ (+ = 1–5 cells seen per culture well.)"}, {"measurement": "MPIII stained cells (bone; osteopontin)", "setting": "10^−10 M dex", "value": "+ (+ = 1–5 cells seen per culture well.)"}, {"measurement": "P2B1 stained cells (endothelial cells)", "setting": "10^−10 M dex", "value": "− (− = no stained cells seen per culture well.)"}, {"measurement": "P4A4 stained cells (endothelial cells)", "setting": "10^−10 M dex", "value": "− (− = no stained cells seen per culture well.)"}, {"measurement": "Sudan Black B stained cells (fat)", "setting": "10^−10 M dex", "value": "− (− = no stained cells seen per culture well.)"}, {"measurement": "Talin stained cells (fibroblasts)", "setting": "10^−10 M dex", "value": "− (− = no stained cells seen per culture well.)"}, {"measurement": "Trop I stained cells (cardiac muscle; cardiac troponin I)", "setting": "10^−10 M dex", "value": "− (− = no stained cells seen per culture well.)"}, {"measurement": "WVIDI stained cells (bone; bone sialoproteins I and II)", "setting": "10^−10 M dex", "value": "+ (+ = 1–5 cells seen per culture well.)"}, {"measurement": "Von Kossa's stain of multilayered nodules (mineral)", "setting": "after 3 weeks of treatment", "value": "mineralized"}, {"measurement": "Alcian blue pH 1.0 staining (cartilage)", "setting": "pH 1", "value": "sulfated proteoglycans were detected"}]}]}
